Assay results reported in patent US6472395B1, “Agent for use in transplantation” (Leif J. I. Lundblad, priority 1999, dated 2002).
“Also recorded” adds a separate entry of the source.

Columns and labels:
[1] = Toxicity in vivo (general statement)
[2] = tested on: rat livers; assay: TPA toxicity in rat liver perfusion, lactate and bile flow
Method: (§1) A series of experiments were carried out with rat livers in a heart/lung machine (FIGS. 4 and 5).
(§2) Lactate was added to a control liver perfusion and the bile flow and the lactate level were measured as a function of time. Bile flow is the clinical parameter for liver function, the higher bile flow the better liver function. The results from controls are shown in the upper diagrams of FIGS. 4 and 5. A normal liver down-regulates the lactate very rapidly to in vivo levels (3-5 mM). The normal bile flow in controls is represented by the dotted line.
In the next experiment (FIG. 5) a very toxic compound, triphorbolester (TPA) was added to the perfusion fluid. TPA is an inducer of inflammation and a very potent tumour promoter.
Then the same experiment was repeated under the same conditions except that 2 mg B220 also was added to the perfusion. From said results it can be seen that when B220 is present in the system the toxic effects of TPA were prevented and the values of lactate and bile flow were restored (and even better as compared to the controls in FIG. 5, upper diagram). […] The mode of action resides in a blocking of hyperplasia/inflammation.

[3] = Long time in vivo experiments on tumour promoter effect of TPA
[4] = tested on: rat liver; assay: Donor pretreatment, liver stored 24 h at +4° C. then isolated perfusion, bile flow and lactate; type: in vivo; details: pretreatment of B220 to the donor
Method: The same experiment was repeated but instead the temperature applied during transport of human livers(+4° C.) was used. The livers were stored for 24 h before installation in the perfusion system. This should be compared to 12 h which is the maximum for human liver transplantation. […] The experiment was identical to what is shown in FIG. 6 except for time and temperature used.

[5] = tested on: rat livers; assay: Reperfusion (10 min shut-off) of rat liver in heart/lung machine, lactate and bile flow over time; details: 2 mg B220 in the system, FIG. 4 lower diagram
Method: as §1, §2
In the next experiment a heart/lung machine was shut off for 10 minutes and then it was started again to induce oxidative stress (reperfusion). The amount of lactate, which is a measurement of tissue damage, was determined as a function of time and the bile flow as a function of time was also determined as an indicator of toxic effect. The results are shown in FIG. 4, middle diagram, indicating a high level of lactate (solid curve) and a reduced bile flow (dotted curve) after reperfusion. Both these effects are markers for tissue damage.
In the next experiment the same reperfusion experiment was carried out with B220 present in the system in an amount of 2 mg.

[6] = tested on: rat liver; assay: Donor pretreatment, liver stored 2 h at +30° C. then isolated perfusion, total bile flow; type: in vivo; details: single dose B220 i.p. to donor 24 h prior to surgery; liver 2 h at +30° C.; FIG. 6
Method: In a further experiment rat liver was tested in isolated perfusion where B220 was administered to the donor. The donors were administered a single dose of B220 24 h before the livers were surgically removed and kept at +30° C. for 2 h before set into perfusion (group 3). (There was a “short” storage (2 h) of rat liver at a high temperature (+30° C.) in order to simulate transplantation). The second group was not administered B220 and the first group was controls directly set into perfusion. […] “Transport” and reperfusion gives a massive oxidative stress which leads to tissue damage.
In FIG. 6 the total bile flow was an indicator of tissue damage induced by transplantation. The controls were directly “transplanted” to the perfusion system while the second group of livers was kept for 2 h at 30° C. before “transplantation”. The third group represents the 2 h at 30° C. treatment but with addition of B220 to the donors.

[7] = tested on: rats; assay: In vivo test of rats with 2,7-dNF, livers analysed for 8-OH-dG; set-up: species or system rat; details: oral in corn oil, B220 at −48 h, −24 h and +6 h relative to 2,7-dNF dose; FIG. 2
Method: In another experiment rats were tested in vivo and the livers analyzed for 8-OH-dG. In this experiment there were three test groups. One control group, one group to which 2,7-dinitrofluorene (2,7-dNF), which is a well-known carcinogen found in diesel exhaust and inducer of 8-OH-dG, was orally administered and one group to which both 2,7-dNF and a compound to be used as an agent according to the present invention (B220) were administered. B220 was administered at three time points in relation to the 2,7-dNF dose, viz. −48 h, −24 h and +6 h. All doses were administered orally with the substance in corn oil. Control only received carrier. Oxidation of DNA (oxidation of guanine, 8-OH-dG) was measured in the liver. 8-OH-dG is a promutagenic event correlated to several different types of diseases, for instance cancer, diabetes and infectious diseases.
The results of the experiment can be seen from the enclosed FIG. 2.

[8] = tested on: rat livers; assay: Ischemia/reperfusion in rat liver perfusion system, removal of lactate, comparison with known protective compounds; details: 5 mg added to the perfusate before ischemia; FIG. 3
Method: A third experiment was carried out, wherein rat livers were taken out and were subjected to perfusion in a heart/lung machine. The perfusion solution is blood with an implanted liver. When the system has reached equilibrium the perfusion flow is shut off and 10 to 20 minutes later the perfusion flow is turned on again, which is called reperfusion (ischemia). A known toxic effect of reperfusion (ischemia/infarction)(tissue damage due to oxidative stress) is the reduced capacity to remove lactate from the perfusate.

[9] = tested on: liver from rat
Method: In order to investigate the agents to be used in transplantation according to the present invention a liver from rat was tested in a perfusion solution in a heart/lung machine. In order to measure organ damage the amount of 8-OH-dG in the liver was analysed. As an inducer of 8-OH-dG dimethylsulphoxide (DMSO) was added to a perfusion solution.

[10] = 2 mg B220 added together with TPA, FIG. 5 lower diagram
[11] = TPA alone added to the perfusion fluid, FIG. 5 middle diagram

Cc1cc2nc3c4ccccc4n(CCN(C)C)c3nc2cc1C [B220]
toxicity [1]: practically non-toxic
bile flow with TPA in perfusion [2, 10]: restored
lactate with TPA in perfusion [2, 10]: restored
tumour promoter effect of TPA [3]: can stop the very potent tumour promoter effect of TPA
bile flow ([4]; FIG. 7): the bile flow was restored
lactate levels ([4]; FIG. 8): same protective effect on lactate levels
bile flow as a function of time after reperfusion [5]: rapidly accommodate to normal values; also recorded: better than in the controls
lactate amount as a function of time after reperfusion [5]: rapidly accommodate to normal values; also recorded: better than in the controls
total bile flow during the perfusion [6]: the toxic effects are eliminated; also recorded: completely restored the bile flow value to that of the control samples
8-OH-dG in the liver (oxidation of DNA) [7]: protects against 2,7-dNF-induced formation of 8-OH-dG; also recorded: reduces 8-OH-dG to below the control values
reduction of lactate in perfusate after ischemia (protection) [8]: significant reduction of lactate; also recorded: statistically significant protection

C[S+](C)[O-] [DMSO, dimethylsulphoxide, reference compound]
8-OH-dG in the liver [9]: significant increase of 8-OH-dG

CC(=O)Oc1ccccc1C(=O)O [ASA, acetyl salicylic acid]
reduction of lactate in perfusate after ischemia (protection) [8]: did not give any protective effects

CCCCCCCCCCCCCC(=O)O[C@@H]1[C@@H](C)[C@@]2(O)[C@@H](C=C(CO)C[C@]3(O)C(=O)C(C)=C[C@@H]23)[C@@H]2C(C)(C)[C@]12OC(C)=O [TPA, triphorbolester, reference compound]
capacity to produce bile [2, 11]: very restricted capacity to produce bile
capacity to reduce lactate [2, 11]: very limited capacity to reduce lactate
